Molecular target: T1, PAR4 (Homo sapiens, UniProt Q96RI0)
T1 construct: expressed in transfected cells; host or cells: HEK293 PAR4 Clone 1.2A (BMS Arctic ID 383940)
T1 sequence (Q96RI0 18-385): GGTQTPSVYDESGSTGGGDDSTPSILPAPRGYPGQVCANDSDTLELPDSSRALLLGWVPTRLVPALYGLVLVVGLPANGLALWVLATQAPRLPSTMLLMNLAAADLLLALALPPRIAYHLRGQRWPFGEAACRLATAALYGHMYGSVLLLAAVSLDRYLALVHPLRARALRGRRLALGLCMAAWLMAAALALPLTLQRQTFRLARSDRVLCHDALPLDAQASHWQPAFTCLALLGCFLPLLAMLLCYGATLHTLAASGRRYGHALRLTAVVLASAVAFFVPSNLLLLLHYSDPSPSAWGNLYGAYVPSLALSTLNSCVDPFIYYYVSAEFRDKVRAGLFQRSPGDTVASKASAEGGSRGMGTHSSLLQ
Experiment: PAR4 FLIPR assay (antagonism of agonist peptide-induced calcium mobilization)
Format: cell-based
Summary of the method: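 Antagonism was taken as block of calcium mobilization evoked by the agonist peptide H-Ala-Phe(4-F)-Pro-Gly-Trp-Leu-Val-Lys-Asn-[…]-NH2, added after 30 min room-temperature compound preincubation in dye-loaded PAR4-transfected HEK293 cells (endogenous PAR1). Fluorescence was read on FDSS, with compound addition alone used as the agonist counter-screen; values come from 11-point concentration-response curves.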

IC50 [nM]	SMILES
1.1	COc1cnc2c(-c3nc4cc(F)c5c(c4s3)C[C@@H](CNC(=O)OCC(C)(C)C)O5)cc(C)cc2n1 [Example 261, (S)-neopentyl ((5-fluoro-2-(2-methoxy-7-methylquinoxalin-5-yl)-7,8-dihydrobenzofuro[5,4-d]thiazol-7-yl)methyl)carbamate]
6.3	COc1cnc2c(-c3nc4cc(F)c5c(c4s3)C[C@H](COC(=O)Nc3cncc(C#N)c3)O5)cc(C)cc2n1 [Example 154, (R)-(5-fluoro-2-(2-methoxy-7-methylquinoxalin-5-yl)-7,8-dihydrobenzofuro[5,4-d]thiazol-7-yl)methyl (5-cyanopyridin-3-yl)carbamate]
25	COc1cnc2c(-c3nc4c(C)cc5c(c4s3)OC[C@H](COC(=O)Nc3ccncc3)O5)cc(C)cc2n1 [Example 48, (R)-(2-(2-methoxy-7-methylquinoxalin-5-yl)-4-methyl-7,8-dihydro-[1,4]dioxino[2′,3′:3,4]benzo[1,2-d]thiazol-7-yl)methyl pyridin-4-ylcarbamate]
2.3	COCCOC(=O)NC[C@@H]1Cc2c(c(F)cc3nc(-c4cc(C)cc5nc(OC)cnc45)sc23)O1 [Example 250, (S)-2-methoxyethyl ((5-fluoro-2-(2-methoxy-7-methylquinoxalin-5-yl)-7,8-dihydrobenzofuro[5,4-d]thiazol-7-yl)methyl)carbamate]
3.3	Cc1ncc(NC(=O)OC[C@H]2COc3c(ccc4nc(-c5cc(Cl)cc6cc(OC(F)F)cnc56)sc34)O2)cn1 [Example 272, (R)-(2-(6-chloro-3-(difluoromethoxy)quinolin-8-yl)-7,8-dihydro-[1,4]dioxino[2′,3′:3,4]benzo[1,2-d]thiazol-7-yl)methyl (2-methylpyrimidin-5-yl)carbamate]
1	COc1cnc2c(-c3nc4c(Cl)cc5c(c4s3)OC[C@H](COC(=O)Nc3ccc(C)nc3)O5)cc(C)cc2n1 [Example 62]
0.6	COc1cnc2c(-c3nc4ccc5c(c4s3)C[C@@H](CNC(=O)OCc3ccccc3)O5)cc(C)cc2n1 [Example 225, (S)-benzyl ((2-(2-methoxy-7-methylquinoxalin-5-yl)-7,8-dihydrobenzofuro[5,4-d]thiazol-7-yl)methy 1)carbamate]
1.4	COc1ccc(NC(=O)OC[C@H]2COc3c(cc(C)c4nc(-c5cc(CO)cc6nc(OC)cnc56)sc34)O2)cn1 [Example 98, (R)-(2-(7-(hydroxymethyl)-2-methoxyquinoxalin-5-yl)-4-methyl-7,8-dihydro-[1,4]dioxino[2′,3′:3,4]benzo[1,2-d]thiazol-7-yl)methyl (6-methoxypyridin-3-yl)carbamate]
7.9	COc1cnc2c(-c3nc4cc(F)c5c(c4s3)CC(C)(C)O5)cc(C)cc2n1 [Example 200, 5-fluoro-2-(2-methoxy-7-methylquinoxalin-5-yl)-7,7-dimethyl-7,8-dihydrobenzofuro[5,4-d]thiazole]
1.4	COc1cnc2c(-c3cc4c5c(cc(Cl)c4o3)O[C@@H](COC(=O)Nc3ccnc(C)c3)CO5)cc(C)cc2n1 [Example 8, (R)-(6-chloro-8-(2-methoxy-7-methylquinoxalin-5-yl)-2,3-dihydro-[1,4]dioxino[2,3-e]benzofuran-3-yl)methyl (2-methylpyridin-4-yl)carbamate]
7.7	COc1cnc2c(-c3nc4c(F)cc5c(c4s3)OC[C@H](COC(=O)Nc3cccc(C#N)c3)O5)cc(C)cc2n1 [Example 72, (R)-(4-fluoro-2-(2-methoxy-7-methylquinoxalin-5-yl)-7,8-dihydro-[1,4]dioxino[2′,3′:3,4]benzo[1,2-d]thiazol-7-yl)methyl (3-cyanophenyl)carbamate]
1.1	COc1cc(NC(=O)OC[C@H]2COc3c(cc(C)c4nc(-c5cc(C)cc6nc(OC)cnc56)sc34)O2)ccn1 [Example 45, (R)-(2-(2-methoxy-7-methylquinoxalin-5-yl)-4-methyl-7,8-dihydro-[1,4]dioxino[2′,3′:3,4]benzo[1,2-d]thiazol-7-yl)methyl (2-methoxypyridin-4-yl)carbamate]
20	COc1cnc2c(-c3nc4ccc5c(c4s3)C[C@@H](CNC(=O)OCC3CCOC3)O5)cc(C)cc2n1 (stereo partly drawn) [Example 229, (Tetrahydrofuran-3-yl)methyl (((S)-2-(2-methoxy-7-methylquinoxalin-5-yl)-7,8-dihydrobenzofuro[5,4-d]thiazol-7-yl)methyl)carbamate]
50	COc1cnc2c(-c3nc4cc(F)c5c(c4s3)C[C@@H](CNC(=O)NC3CC3)O5)cc(C)cc2n1 [Example 257, (S)-1-cyclopropyl-3-((5-fluoro-2-(2-methoxy-7-methylquinoxalin-5-yl)-7,8-dihydrobenzofuro[5,4-d]thiazol-7-yl)methyl)urea]
1	COc1cnc2c(-c3nc4c(C)cc5c(c4s3)OC[C@H](COC(=O)Nc3ccc(C)nc3)O5)cc(C)cc2n1 [Example 56, (R)-(2-(2-methoxy-7-methylquinoxalin-5-yl)-4-methyl-7,8-dihydro-[1,4]dioxino[2′,3′:3,4]benzo[1,2-d]thiazol-7-yl)methyl (6-methylpyridin-3-yl)carbamate]
1.8	COc1cnc2c(-c3nc4c(C)cc5c(c4s3)OC[C@H](COC(=O)Nc3ccc(C)nc3)O5)cc(CO)cc2n1 [Example 100, (R)-(2-(7-(hydroxymethyl)-2-methoxyquinoxalin-5-yl)-4-methyl-7,8-dihydro-[1,4]dioxino[2′,3′:3,4]benzo[1,2-d]thiazol-7-yl)methyl (6-methylpyridin-3-yl)carbamate]
3.2	COc1cnc2c(-c3cc4c5c(cc(C)c4o3)O[C@@H](COC(=O)Nc3ccnc(C)c3)CO5)cc(C)cc2n1 [Example 15, (R)-(8-(2-methoxy-7-methylquinoxalin-5-yl)-6-methyl-2,3-dihydro-[1,4]dioxino[2,3-e]benzofuran-3-yl)methyl (2-methylpyridin-4-yl)carbamate]
6.4	Cc1ncc(NC(=O)OC[C@H]2Cc3c(c(F)cc4nc(-c5cc(Cl)cc6cc(OC(F)F)cnc56)sc34)O2)cn1 [Example 273, (R)-(2-(6-chloro-3-(difluoromethoxy)quinolin-8-yl)-5-fluoro-7,8-dihydrobenzofuro[5,4-d]thiazol-7-yl)methyl (2-methylpyrimidin-5-yl)carbamate]
1	COc1cnc2c(-c3nc4ccc5c(c4s3)OC[C@H](COC(=O)Nc3ccc(C(=O)N4CCOCC4)cc3)O5)cc(C)cc2n1 [Example 114, (R)-(2-(2-methoxy-7-methylquinoxalin-5-yl)-7,8-dihydro-[1,4]dioxino[2′,3′:3,4]benzo [1,2-d]thiazol-7-yl)methyl (4-(morpholine-4-carbonyl)phenyl)carbamate]
71	COc1cnc2c(-c3nc4cc(F)c5c(c4s3)[C@H](C)[C@H](CO)O5)cc(C)cc2n1 (relative stereo) [Example 199]
5	COc1cncc(NC(=O)OC[C@H]2Cc3c(c(F)cc4nc(-c5cc(C)cc6nc(OC)cnc56)sc34)O2)c1 [Example 168, (R)-(5-fluoro-2-(2-methoxy-7-methylquinoxalin-5-yl)-7,8-dihydrobenzofuro[5,4-d]thiazo 1-7-yl)methyl (5-methoxypyridin-3-yl)carbamate]
8.6	COc1cnc2c(-c3nc4c(C(F)F)cc5c(c4s3)OCC(COC(=O)Nc3ccnc(C)c3)O5)cc(C)cc2n1 (centres unmarked) [Example 74, (4-(difluoromethyl)-2-(2-methoxy-7-methylquinoxalin-5-yl)-7,8-dihydro-[1,4]dioxino[2′,3′:3,4]benzo[1,2-d]thiazol-7-yl)methyl (2-methylpyridin-4-yl)carbamate]
6.9	COc1cnc2c(-c3nc4c(Cl)cc5c(c4s3)OC[C@H](COC(=O)Nc3cnc(C)c(C)c3)O5)cc(C)cc2n1 [Example 60, (R)-(4-chloro-2-(2-methoxy-7-methylquinoxalin-5-yl)-7,8-dihydro-[1,4]dioxino[2′,3′:3,4]benzo[1,2-d]thiazol-7-yl)methyl (5,6-dimethylpyridin-3-yl) carbamate]
2.2	COc1cnc2c(-c3nc4c(Cl)cc5c(c4s3)OC[C@H](COC(=O)Nc3cccc(C#N)c3)O5)cc(C)cc2n1 [Example 27, (R)-(4-chloro-2-(2-methoxy-7-methylquinoxalin-5-yl)-7,8-dihydro-[1,4]dioxino[2′,3′:3,4]benzo[1,2-d]thiazol-7-yl)methyl (3-cyanophenyl)carbamate]
1.1	COc1cnc2c(-c3nc4cc(F)c5c(c4s3)C[C@H](COC(=O)Nc3ccc(OCC(F)(F)CO)nc3)O5)cc(C)cc2n1 [Example 166, (R)-(5-fluoro-2-(2-methoxy-7-methylquinoxalin-5-yl)-7,8-dihydrobenzofuro[5,4-d]thiazo 1-7-yl)methyl (6-(2,2-difluoro-3-hydroxypropoxy)pyridin-3-yl)carbamate]
2.1	COc1cnc2c(-c3nc4c(C)cc5c(c4s3)OCC(COC(=O)Nc3cnc(C)c(C)c3)O5)cc(C)cc2n1 (centres unmarked) [Example 119, (2-(2-methoxy-7-methylquinoxalin-5-yl)-4-methyl-7,8-dihydro-[1,4]dioxino[2′,3′:3,4]benzo[1,2-d]thiazol-7-yl)methyl (5,6-dimethylpyridin-3-yl)carbamate]

Reference: US11932658B2 (BRISTOL-MYERS SQUIBB COMPANY, priority 2016, dated 2024)
